Holding throughout (format): biochemical
The target of one assay is T1, Matriptase (Homo sapiens, UniProt Q9Y5Y6).
T1 sequence (Q9Y5Y6 1-855): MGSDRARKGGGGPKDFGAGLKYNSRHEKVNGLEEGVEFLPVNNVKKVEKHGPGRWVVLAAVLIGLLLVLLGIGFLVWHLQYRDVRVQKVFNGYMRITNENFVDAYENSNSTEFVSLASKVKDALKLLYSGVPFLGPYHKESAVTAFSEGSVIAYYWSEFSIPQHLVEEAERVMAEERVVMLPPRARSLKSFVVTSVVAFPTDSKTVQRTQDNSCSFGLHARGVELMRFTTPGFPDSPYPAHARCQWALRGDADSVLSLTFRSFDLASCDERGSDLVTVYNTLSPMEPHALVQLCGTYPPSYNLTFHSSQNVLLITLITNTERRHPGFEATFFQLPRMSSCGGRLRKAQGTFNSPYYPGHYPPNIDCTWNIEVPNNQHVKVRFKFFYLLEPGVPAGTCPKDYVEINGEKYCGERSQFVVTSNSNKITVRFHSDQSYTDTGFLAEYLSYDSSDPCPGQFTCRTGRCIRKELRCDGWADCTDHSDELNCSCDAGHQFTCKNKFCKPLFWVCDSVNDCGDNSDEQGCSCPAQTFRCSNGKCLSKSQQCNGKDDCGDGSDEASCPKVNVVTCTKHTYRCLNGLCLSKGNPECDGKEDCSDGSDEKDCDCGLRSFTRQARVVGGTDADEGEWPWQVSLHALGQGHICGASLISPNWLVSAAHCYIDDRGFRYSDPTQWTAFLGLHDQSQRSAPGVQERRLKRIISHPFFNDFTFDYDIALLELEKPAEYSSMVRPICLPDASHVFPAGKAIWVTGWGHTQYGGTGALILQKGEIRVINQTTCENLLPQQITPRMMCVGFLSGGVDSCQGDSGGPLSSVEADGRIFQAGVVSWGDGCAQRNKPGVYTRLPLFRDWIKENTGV
As to the kind of experiment: Matriptase inhibition. To be noted: Matriptase; read-out: IC50 MAT.

In another assay the target is T2, PlasmaKLK (human plasma) (Homo sapiens, UniProt P03952).
T2 construct: purchased Sigma-Aldrich; host or cells: human plasma
Nature of the assay: Plasma kallikrein inhibition, chromogenic substrate Biophen CS-31(02). As to conditions: Plasma KLK; Tris buffer pH 7.8; read-out: IC50 pKLK. The source says: (§1) The IC50 values For KLK1, KLK2 and KLK8 were obtained in a similar way. For plasmin, tPA, thrombin, Fxa, HNE, Plasma kallikrein Chromogenic substrates were used (absorption: 405 nm). (KLK2, KLK4, KLK8 were supplied by Viktor Magdolen TUMunich (TUM)).

A further assay deals with T3, FXa (Homo sapiens, UniProt P00742).
T3 construct: purchased Nodia
As to the kind of experiment: FXa inhibition, chromogenic substrate Biophen CS-11(32). As to conditions: Tris buffer pH 8.3; read-out: IC50 FXa.
Text: as §1

For the next assay, the target named is T4, KLK2 (human) (Homo sapiens, UniProt P20151).
T4 construct: purchased Viktor Magdolen, TUMunich (TUM), supplied by an academic laboratory
As to the kind of experiment: KLK2 inhibition, fluorogenic substrate H-Pro-Phe-Arg-AMC. As to conditions: Tris buffer pH 8.3; read-out: IC50 KLK2. The method, boiled down: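 IC50 values for KLK1 and KLK2 were determined by the same procedure. For tPA and neutrophil elastase, chromogenic substrate cleavage was followed by absorbance at 405 nm.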

T2 sequence (P03952 391-638 limits assumed): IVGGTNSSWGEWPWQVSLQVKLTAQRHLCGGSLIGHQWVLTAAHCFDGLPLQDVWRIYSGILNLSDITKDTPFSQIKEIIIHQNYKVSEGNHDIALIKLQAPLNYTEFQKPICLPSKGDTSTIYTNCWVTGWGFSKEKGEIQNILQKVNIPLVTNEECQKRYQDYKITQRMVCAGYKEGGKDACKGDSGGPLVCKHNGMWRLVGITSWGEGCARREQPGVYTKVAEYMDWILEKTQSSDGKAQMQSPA
T2 sequence (P03952 20-390 partner limits assumed): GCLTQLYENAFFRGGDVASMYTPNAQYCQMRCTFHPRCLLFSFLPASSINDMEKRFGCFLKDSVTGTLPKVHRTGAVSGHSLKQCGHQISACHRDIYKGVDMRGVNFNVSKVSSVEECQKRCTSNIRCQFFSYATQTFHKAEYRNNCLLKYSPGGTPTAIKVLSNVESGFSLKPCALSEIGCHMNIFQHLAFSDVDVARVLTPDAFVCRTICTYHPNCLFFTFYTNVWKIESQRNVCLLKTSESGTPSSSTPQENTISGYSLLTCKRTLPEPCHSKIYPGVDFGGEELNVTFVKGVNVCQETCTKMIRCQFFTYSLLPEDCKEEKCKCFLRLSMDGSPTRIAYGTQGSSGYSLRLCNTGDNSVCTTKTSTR
T3 sequence (P00742 235-488 limits assumed): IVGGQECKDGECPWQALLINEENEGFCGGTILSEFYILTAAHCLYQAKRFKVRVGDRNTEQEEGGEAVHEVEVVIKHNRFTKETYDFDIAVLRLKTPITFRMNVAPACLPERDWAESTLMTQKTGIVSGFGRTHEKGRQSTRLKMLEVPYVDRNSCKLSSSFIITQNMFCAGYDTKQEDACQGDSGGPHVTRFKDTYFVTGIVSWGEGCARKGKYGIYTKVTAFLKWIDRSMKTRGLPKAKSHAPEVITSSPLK
T3 sequence (P00742 41-179 partner limits assumed): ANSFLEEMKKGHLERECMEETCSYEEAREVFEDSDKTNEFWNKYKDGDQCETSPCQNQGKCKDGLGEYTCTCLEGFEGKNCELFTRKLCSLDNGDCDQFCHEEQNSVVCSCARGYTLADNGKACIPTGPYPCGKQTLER
T4 sequence (P20151 25-261): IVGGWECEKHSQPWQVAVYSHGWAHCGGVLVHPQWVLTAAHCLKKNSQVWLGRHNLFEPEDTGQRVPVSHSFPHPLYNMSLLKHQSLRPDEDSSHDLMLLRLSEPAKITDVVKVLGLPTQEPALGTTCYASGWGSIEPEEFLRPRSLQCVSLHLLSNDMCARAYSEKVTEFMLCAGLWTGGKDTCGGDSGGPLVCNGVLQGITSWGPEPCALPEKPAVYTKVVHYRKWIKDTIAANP

For `COCCOCCOC(=O)NC(c1ccc(NC(=N)N)cc1)P(=O)(Oc1ccccc1)Oc1ccccc1.O=C(O)C(F)(F)F` (centres unmarked) [Compound 28, 2-(2-methoxyethoxy)ethyl((diphenoxyphosphoryl)(4-guanidinophenyl)methyl) carbamate 2,2,2-trifluoroacetate], the IC50 – broadly, the midpoint of a concentration-inhibition curve – at Matriptase is 2.5 to 10 µM; on PlasmaKLK (human plasma), 10 to 250 µM; at FXa, above 250 µM; at KLK2 (human) it was 0.1 to 1 µM.

Take `N=C(N)Nc1ccc(C(NC(=O)OCCOc2ccccc2)P(=O)(Oc2ccccc2)Oc2ccccc2)cc1.O=C(O)C(F)(F)F` (centres unmarked) [Compound 30, 2-phenoxyethyl((diphenoxyphosphoryl)(4-guanidinophenyl)methyl)carbamate 2,2,2-trifluoroacetate]: the half-inhibitory concentration (IC50) was 2.5 to 10 µM at Matriptase, above 250 µM at PlasmaKLK (human plasma), 10 to 250 µM at FXa and 0.1 to 1 µM on KLK2 (human).

(Values after US10017527B2, “KLK4 inhibitors” (Universiteit Antwerpen, priority 2014, dated 2018).)
